Values of other authors in US5801147A, “Polypeptides and use thereof” (Takeda Chemical Industries, Ltd., priority 1991, dated 1998).
No end group written: not given here.

Test system: hypophysis cells
Conditions: prior art

| Substance | c-AMP-producing activity (background statement) |
| --- | --- |
| PACAP23: polypeptide consisting of 23 amino acid residues on the N-terminal side of PACAP38 (HSDGIFTDSYSRYRKQMAVKKYL; ends and bridges not checked; UniProt P18509 132-154, looked up, fragment) | the same activity as that of PACAP27 |
| PACAP24: polypeptide consisting of 24 amino acid residues on the N-terminal side of PACAP38 (HSDGIFTDSYSRYRKQMAVKKYLA; ends and bridges not checked; UniProt P18509 132-155, looked up, fragment) | the same activity as that of PACAP27 |
| PACAP25: polypeptide consisting of 25 amino acid residues on the N-terminal side of PACAP38 (HSDGIFTDSYSRYRKQMAVKKYLAA; ends and bridges not checked; UniProt P18509 132-156, looked up, fragment) | the same activity as that of PACAP27 |
| PACAP38: polypeptide consisting of 38 amino acid residues, discovered in humans, sheep and rats (SEQ ID NO:1) (HSDGIFTDSYSRYRKQMAVKKYLAAVLGKRYKQRVKNK; ends and bridges not checked) | enhances the production of intracellular c-AMP in hypophysis cells |
| PACAP26: polypeptide consisting of 26 amino acid residues on the N-terminal side of PACAP38 (HSDGIFTDSYSRYRKQMAVKKYLAAV; ends and bridges not checked; UniProt P18509 132-157, looked up, fragment) | the same activity as that of PACAP27 |
| PACAP27: a polypeptide consisting of 27 amino acid residues on the N-terminal side of PACAP38 (HSDGIFTDSYSRYRKQMAVKKYLAAVL; ends and bridges not checked; UniProt P18509 132-158, looked up) | The activity of PACAP38 has also been found |
